Data published in patent publication US20070049564A1 (Wyeth, priority 2005, published 2007).
Converted amounts (≈) assume the structure as drawn. Read-outs that look alike come from different tables or passages of the source.

Assays:
S. agalactiae GC 4564 = assay: MIC, broth microdilution; details: Streptococcus agalactiae
S. aureus GC 6469 = assay: MIC, broth microdilution; details: Staphylococcus aureus
E. coli GC 2272 = assay: MIC, broth microdilution; details: Escherichia coli
E. faecalis GC 2265 = assay: MIC, broth microdilution; details: Enterococcus faecalis
E. faecalis GC 4555 = assay: MIC, broth microdilution; details: Enterococcus faecalis
S. pneumoniae* GC 4465 = assay: MIC, broth microdilution; details: Streptococcus pneumoniae
E. faecalis GC 2267 = assay: MIC, broth microdilution; details: Enterococcus faecalis
E. coli = assay: Range of MIC for E. coli strains; details: Escherichia coli
E. coli GC 2231 = assay: MIC, broth microdilution; details: Escherichia coli
Staph. = assay: Range of MIC for Staph. strains, including MRSA; details: Staphylococcus aureus
E. coli GC 3226 = assay: MIC, broth microdilution; details: Escherichia coli
E. faecium GC 2243 = assay: MIC, broth microdilution; details: Enterococcus faecium
S. typhimurium GC 2172 = assay: MIC, broth microdilution; details: Salmonella enterica, TYPHIMURIUM
E. coli GC 4560 = assay: MIC, broth microdilution; details: Escherichia coli
E. coli GC 2203 = assay: MIC, broth microdilution; details: Escherichia coli
E. coli GC 6465 = assay: MIC, broth microdilution; details: Escherichia coli
S. aureus GC 6466 = assay: MIC, broth microdilution; details: Staphylococcus aureus
S. aureus GC 6467 = assay: MIC, broth microdilution; details: Staphylococcus aureus
Method: Antimicrobial susceptibility testing. The in vitro activities of the antibiotics are determined by the broth microdilution method as recommended by the National Committee for Clinical Laboratory Standards (NCCLS) (1). Mueller-Hinton II broth (MHBII)(BBL Cockeysville, Md.) is the medium employed in the testing procedures. Microtiter plates containing serial dilutions of each antimicrobial agent are inoculated with each organism to yield the appropriate density (10^5 CFU/ml) in a 100 μl final volume. The plates are incubated for 18-22 hours at 35° C. in ambient air.
Representative compounds were first incubated in mouse serum for an hour prior to the in vitro testing against a panel of selected gram-positive and gram-negative bacteria strains. All compounds were also pre-incubated in water for an hour prior to testing as control.

E. coli GC 2232 = assay: MIC, broth microdilution; details: Escherichia coli
S. aureus GC 4536 = assay: MIC, broth microdilution; details: Staphylococcus aureus
[1] = read-out: MINIMAL INHIBITORY CONCENTRATION MIC, Human Serum
[2] = read-out: MINIMAL INHIBITORY CONCENTRATION MIC, Mouse Serum
[3] = read-out: MINIMAL INHIBITORY CONCENTRATION MIC, Water

Cc1cc(C)cc(C(=O)OCOC(=O)N(CC(=O)Nc2cc(N(C)C)c3c(c2O)C(=O)C2=C(O)[C@]4(O)C(=O)C(C(N)=O)=C(O)[C@@H](N(C)C)[C@@H]4C[C@@H]2C3)C(C)(C)C)c1 [Example 51]
MIC (S. agalactiae GC 4564; GC4564, read-out: MINIMAL INHIBITORY CONCENTRATION MIC, Human Serum): 4 µg/mL (≈ 5.05 µM)
MIC (S. agalactiae GC 4564; GC4564, read-out: MINIMAL INHIBITORY CONCENTRATION MIC, Mouse Serum): 1 µg/mL (≈ 1.26 µM)
MIC (S. agalactiae GC 4564; GC4564, read-out: MINIMAL INHIBITORY CONCENTRATION MIC, Water): 2 µg/mL (≈ 2.53 µM)
MIC (S. aureus GC 6469; GC6469, read-out: MINIMAL INHIBITORY CONCENTRATION MIC, Human Serum): 1 µg/mL (≈ 1.26 µM)
MIC (S. aureus GC 6469; GC6469, read-out: MINIMAL INHIBITORY CONCENTRATION MIC, Mouse Serum): 1 µg/mL (≈ 1.26 µM)
MIC (S. aureus GC 6469; GC6469, read-out: MINIMAL INHIBITORY CONCENTRATION MIC, Water): 2 µg/mL (≈ 2.53 µM)
MIC (E. coli GC 2272; GC2272, read-out: MINIMAL INHIBITORY CONCENTRATION MIC, Human Serum): 32 µg/mL (≈ 40.4 µM)
MIC (E. coli GC 2272; GC2272, read-out: MINIMAL INHIBITORY CONCENTRATION MIC, Mouse Serum): 2 µg/mL (≈ 2.53 µM)
MIC (E. coli GC 2272; GC2272, read-out: MINIMAL INHIBITORY CONCENTRATION MIC, Water): > 64 µg/mL
MIC (E. faecalis GC 2265; GC2265, read-out: MINIMAL INHIBITORY CONCENTRATION MIC, Human Serum): 4 µg/mL (≈ 5.05 µM)
MIC (E. faecalis GC 2265; GC2265, read-out: MINIMAL INHIBITORY CONCENTRATION MIC, Mouse Serum): 1 µg/mL (≈ 1.26 µM)
MIC (E. faecalis GC 2265; GC2265, read-out: MINIMAL INHIBITORY CONCENTRATION MIC, Water): 8 µg/mL (≈ 10.1 µM)
MIC (E. faecalis GC 4555; GC4555, read-out: MINIMAL INHIBITORY CONCENTRATION MIC, Human Serum): 8 µg/mL (≈ 10.1 µM)
MIC (E. faecalis GC 4555; GC4555, read-out: MINIMAL INHIBITORY CONCENTRATION MIC, Mouse Serum): 1 µg/mL (≈ 1.26 µM)
MIC (E. faecalis GC 4555; GC4555, read-out: MINIMAL INHIBITORY CONCENTRATION MIC, Water): 16 µg/mL (≈ 20.2 µM)
MIC (S. pneumoniae* GC 4465; [1]): 2 µg/mL (≈ 2.53 µM)
MIC (S. pneumoniae* GC 4465; [2]): 0.5 µg/mL (≈ 0.631 µM)
MIC (S. pneumoniae* GC 4465; [3]): 1 µg/mL (≈ 1.26 µM)
MIC (E. faecalis GC 2267; GC2267, read-out: MINIMAL INHIBITORY CONCENTRATION MIC, Human Serum): 4 µg/mL (≈ 5.05 µM)
MIC (E. faecalis GC 2267; GC2267, read-out: MINIMAL INHIBITORY CONCENTRATION MIC, Mouse Serum): 2 µg/mL (≈ 2.53 µM)
MIC (E. faecalis GC 2267; GC2267, read-out: MINIMAL INHIBITORY CONCENTRATION MIC, Water): 16 µg/mL (≈ 20.2 µM)
MIC (E. coli; 20 h, read-out: Range of MIC, E. coli (Mouse Serum)): 1 to 2 µg/mL (≈ 1.26 to 2.53 µM)
MIC (E. coli; read-out: Minimum inhibitory concentration (MIC), E. coli (Human Serum)): 32 to 64 µg/mL (≈ 40.4 to 80.8 µM)
MIC (E. coli; read-out: Minimum inhibitory concentration (MIC), E. coli (water)): > 64 µg/mL
MIC (E. coli; read-out: Range of MIC, E. coli (Water)): > 64 µg/mL
MIC (E. coli GC 2231; GC2231, read-out: MINIMAL INHIBITORY CONCENTRATION MIC, Human Serum): 32 µg/mL (≈ 40.4 µM)
MIC (E. coli GC 2231; GC2231, read-out: MINIMAL INHIBITORY CONCENTRATION MIC, Mouse Serum): 2 µg/mL (≈ 2.53 µM)
MIC (E. coli GC 2231; GC2231, read-out: MINIMAL INHIBITORY CONCENTRATION MIC, Water): > 64 µg/mL
MIC (Staph.; MRSA, read-out: Range of MIC, Staph (Mouse Serum)): 0.25 to 2 µg/mL (≈ 0.316 to 2.53 µM)
MIC (Staph.; MRSA, read-out: Range of MIC, Staph (Water)): 1 to 4 µg/mL (≈ 1.26 to 5.05 µM)
MIC (Staph.; read-out: Minimum inhibitory concentration (MIC), Staph (Human Serum)): 0.25 to 2 µg/mL (≈ 0.316 to 2.53 µM)
MIC (Staph.; read-out: Minimum inhibitory concentration (MIC), Staph (Water)): 1 to 4 µg/mL (≈ 1.26 to 5.05 µM)
MIC (E. coli GC 3226; GC3226, read-out: MINIMAL INHIBITORY CONCENTRATION MIC, Human Serum): 64 µg/mL (≈ 80.8 µM)
MIC (E. coli GC 3226; GC3226, read-out: MINIMAL INHIBITORY CONCENTRATION MIC, Mouse Serum): 2 µg/mL (≈ 2.53 µM)
MIC (E. coli GC 3226; GC3226, read-out: MINIMAL INHIBITORY CONCENTRATION MIC, Water): > 64 µg/mL
MIC (E. faecium GC 2243; GC2243, read-out: MINIMAL INHIBITORY CONCENTRATION MIC, Human Serum): 4 µg/mL (≈ 5.05 µM)
MIC (E. faecium GC 2243; GC2243, read-out: MINIMAL INHIBITORY CONCENTRATION MIC, Mouse Serum): 1 µg/mL (≈ 1.26 µM)
MIC (E. faecium GC 2243; GC2243, read-out: MINIMAL INHIBITORY CONCENTRATION MIC, Water): 4 µg/mL (≈ 5.05 µM)
MIC (S. typhimurium GC 2172; [1]): 64 µg/mL (≈ 80.8 µM)
MIC (S. typhimurium GC 2172; [2]): 8 µg/mL (≈ 10.1 µM)
MIC (S. typhimurium GC 2172; [3]): > 64 µg/mL
MIC (E. coli GC 4560; GC4560, read-out: MINIMAL INHIBITORY CONCENTRATION MIC, Human Serum): 8 µg/mL (≈ 10.1 µM)
MIC (E. coli GC 4560; GC4560, read-out: MINIMAL INHIBITORY CONCENTRATION MIC, Mouse Serum): 1 µg/mL (≈ 1.26 µM)
MIC (E. coli GC 4560; GC4560, read-out: MINIMAL INHIBITORY CONCENTRATION MIC, Water): 32 µg/mL (≈ 40.4 µM)
MIC (E. coli GC 2203; GC2203, read-out: MINIMAL INHIBITORY CONCENTRATION MIC, Human Serum): 32 µg/mL (≈ 40.4 µM)
MIC (E. coli GC 2203; GC2203, read-out: MINIMAL INHIBITORY CONCENTRATION MIC, Mouse Serum): 2 µg/mL (≈ 2.53 µM)
MIC (E. coli GC 2203; GC2203, read-out: MINIMAL INHIBITORY CONCENTRATION MIC, Water): > 64 µg/mL
MIC (E. coli GC 6465; GC6465, read-out: MINIMAL INHIBITORY CONCENTRATION MIC, Human Serum): 32 µg/mL (≈ 40.4 µM)
MIC (E. coli GC 6465; GC6465, read-out: MINIMAL INHIBITORY CONCENTRATION MIC, Mouse Serum): 4 µg/mL (≈ 5.05 µM)
MIC (E. coli GC 6465; GC6465, read-out: MINIMAL INHIBITORY CONCENTRATION MIC, Water): > 64 µg/mL
MIC (S. aureus GC 6466; GC6466, read-out: MINIMAL INHIBITORY CONCENTRATION MIC, Human Serum): 0.25 µg/mL (≈ 0.316 µM)
MIC (S. aureus GC 6466; GC6466, read-out: MINIMAL INHIBITORY CONCENTRATION MIC, Mouse Serum): 0.25 µg/mL (≈ 0.316 µM)
MIC (S. aureus GC 6466; GC6466, read-out: MINIMAL INHIBITORY CONCENTRATION MIC, Water): 1 µg/mL (≈ 1.26 µM)
MIC (S. aureus GC 6467; GC6467, read-out: MINIMAL INHIBITORY CONCENTRATION MIC, Human Serum): 1 µg/mL (≈ 1.26 µM)
MIC (S. aureus GC 6467; GC6467, read-out: MINIMAL INHIBITORY CONCENTRATION MIC, Mouse Serum): 0.5 µg/mL (≈ 0.631 µM)
MIC (S. aureus GC 6467; GC6467, read-out: MINIMAL INHIBITORY CONCENTRATION MIC, Water): 2 µg/mL (≈ 2.53 µM)
MIC (E. coli GC 2232; GC2232, read-out: MINIMAL INHIBITORY CONCENTRATION MIC, Human Serum): 32 µg/mL (≈ 40.4 µM)
MIC (E. coli GC 2232; GC2232, read-out: MINIMAL INHIBITORY CONCENTRATION MIC, Mouse Serum): 2 µg/mL (≈ 2.53 µM)
MIC (E. coli GC 2232; GC2232, read-out: MINIMAL INHIBITORY CONCENTRATION MIC, Water): > 64 µg/mL
MIC (S. aureus GC 4536; GC4536, read-out: MINIMAL INHIBITORY CONCENTRATION MIC, Human Serum): 0.5 µg/mL (≈ 0.631 µM)
MIC (S. aureus GC 4536; GC4536, read-out: MINIMAL INHIBITORY CONCENTRATION MIC, Mouse Serum): 0.5 µg/mL (≈ 0.631 µM)
MIC (S. aureus GC 4536; GC4536, read-out: MINIMAL INHIBITORY CONCENTRATION MIC, Water): 1 µg/mL (≈ 1.26 µM)
